Measurements published in the supplement of paper PMC7840683.
Where a name gives a salt, the structure may show the parent alone. ± gives the standard deviation of the averaged measurements.

Tested on: HepaRG
Assay: LDH release cytotoxicity, % of total lysis control; higher = more cytotoxic
Details: 48 h
How it was run: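 Duplicate wells of single-lot HepaRG cells, grown on collagen I-coated 96-well plates, received eight-point half-log series of test chemicals with 100 µM as the top concentration. Exposure lasted 48 h in serum-free induction medium with 0.5% DMSO, while total lysis wells received 0.1% Triton X. Resorufin fluorescence (CytoTox-ONE, Tecan Safire) was used to quantify LDH leaked into 50 µL of spent medium. Values for percent cytotoxicity were normalized to on-plate vehicle and total lysis controls and averaged across the duplicates.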

SMILES | LDH release cytotoxicity (0.03162 µM) [%] | LDH release cytotoxicity (0.1 µM) [%] | LDH release cytotoxicity (0.3162278 µM) [%] | LDH release cytotoxicity (1 µM) [%] | LDH release cytotoxicity (3.16228 µM) [%] | LDH release cytotoxicity (10 µM) [%] | LDH release cytotoxicity (31.6228 µM) [%] | LDH release cytotoxicity (100 µM) [%] | LDH release cytotoxicity (0.031623 µM) [%] | LDH release cytotoxicity (0.316228 µM) [%] | LDH release cytotoxicity (0.0295673 µM) [%] | LDH release cytotoxicity (0.0935 µM) [%] | LDH release cytotoxicity (0.295673 µM) [%] | LDH release cytotoxicity (0.935 µM) [%] | LDH release cytotoxicity (2.95673 µM) [%] | LDH release cytotoxicity (9.35 µM) [%] | LDH release cytotoxicity (29.5673 µM) [%] | LDH release cytotoxicity (93.5 µM) [%]
CC(Cc1ccc(OCC(=O)O)cc1)NCC(O)c1csc(C(F)(F)F)n1 (stereo not drawn) | -1.76 ± 1.8 | -2.85 ± 0.47 | -1.56 ± 0.35 | -1.12 ± 0.24 | -1.22 ± 0.57 | -0.599 ± 0.77 | 0.839 ± 2.3 | 0.309 ± 0.77 |  |  |  |  |  |  |  |  |  | 
Cc1[nH]nc2c1N=C(c1ccccc1Cl)c1cc([N+](=O)[O-])ccc1N2 | -0.496 ± 0.19 | -1.12 ± 0.7 | -0.522 ± 0.35 | 2.66 ± 0.69 | 5.42 ± 0.45 | 4.54 ± 0.36 | 7.8 ± 1.1 | 40.5 ± 3.8 |  |  |  |  |  |  |  |  |  | 
CCCCCCCCCCCCCCCO [1-Pentadecanol] | 0.0106 ± 0.14 | -0.465 ± 0.06 | 0.131 ± 0.74 | -0.574 ± 0.11 | 0.207 ± 0.55 | 0.233 ± 0.26 | 0.338 ± 0.26 | 2.58 ± 0.24 |  |  |  |  |  |  |  |  |  | 
CC12CCC3c4ccc(O)cc4CC(CCCCCCCCCS(=O)CCCC(F)(F)C(F)(F)F)C3C1CCC2O (stereo not drawn) [Fulvestrant] | -1.87 ± 0.22 | -1.62 ± 0.93 | -0.633 ± 0.4 | -1.01 ± 0.37 | -1.1 ± 0.47 | -0.0401 ± 1.7 | -3.17 ± 0.35 | 3.92 ± 6.4 |  |  |  |  |  |  |  |  |  | 
COCc1nnc(-c2ccc[n+]([O-])c2)n1-c1c(Cl)c(Cl)cc2[nH]c(=O)c(=O)[nH]c12 | -1.68 ± 0.083 | -1.55 ± 0.35 | -2.04 ± 0.24 | -2.82 ± 1.1 | -2.03 ± 0.3 | -1.6 ± 0.17 | -1.69 ± 0.83 | -0.641 ± 0.26 |  |  |  |  |  |  |  |  |  | 
Cc1nc(N(C)C)nc(OC(=O)N(C)C)c1C [Pirimicarb] | -1.14 ± 0.57 | -1.49 ± 0.94 | -1.89 ± 0.61 | -1.97 ± 1.2 | -1.7 ± 0.12 | -1.84 ± 0.15 | -1.4 ± 0.24 | -0.895 ± 1.2 |  |  |  |  |  |  |  |  |  | 
CC(C)N1C(=O)N(c2ccccc2)CSC1=NC(C)(C)C [Buprofezin] | -1.37 ± 0.98 | -1.93 ± 0.62 | -1.95 ± 0.58 | -2.46 ± 1.3 | -2.17 ± 0.66 | -1.91 ± 0.48 | -2.33 ± 0.99 | 11.8 ± 0.29 |  |  |  |  |  |  |  |  |  | 
CC(C)CCCCCCc1ccc(O)cc1 [4-Nonylphenol, branched] | -2.12 ± 0.23 | -1.46 ± 0.5 | -1.72 ± 0.52 | -1.24 ± 0.36 | -1.58 ± 0.073 | -1.23 ± 0.036 | -0.532 ± 0.65 | -0.17 ± 1 |  |  |  |  |  |  |  |  |  | 
COc1cc(OC)nc(Sc2cccc(Cl)c2C(=O)O)n1 [Pyrithiobac-sodium] | -1.21 ± 0.15 | -0.445 ± 0.51 | -0.467 ± 0.22 | -0.953 ± 0.39 | -0.133 ± 0.53 | 0.758 ± 0.15 | 0.654 ± 0.062 | 2.53 ± 0.2 |  |  |  |  |  |  |  |  |  | 
COc1ccc(OC(F)(F)F)cc1CNC1CCCNC1c1ccccc1 (stereo not drawn) | -0.49 ± 0.062 | -0.83 ± 0.43 | -1.38 ± 0.18 | -1.02 ± 1.2 | -1.52 ± 1.2 | -0.56 ± 0.84 | 5.16 ± 0.72 | 88 ± 10 |  |  |  |  |  |  |  |  |  | 
NCc1cccc(C2CCN(C(=O)c3ccc(C#Cc4ccccc4F)o3)CC2)c1 [AVE5638] | 0.161 ± 0.38 | 0.0623 ± 0.48 | 0.0711 ± 0.39 | 0.0437 ± 0.62 | 0.441 ± 0.0046 | 0.359 ± 0.33 | 3.69 ± 0.52 | 65.1 ± 7.6 |  |  |  |  |  |  |  |  |  | 
Cc1ccc(S(=O)(=O)NC(=O)NN2CCCCCC2)cc1 [Tolazamide] | -1.21 ± 0.35 | -1.21 ± 0.45 | -1.26 ± 0.85 | -1.16 ± 0.26 | -0.648 ± 0.45 | -0.378 ± 0.45 | -0.0919 ± 0.11 | 1.58 ± 1.5 |  |  |  |  |  |  |  |  |  | 
CC12C=CC(=O)C=C1CCC1C2C(=O)CC2(C)C1CCC2(O)C(=O)CO (stereo not drawn) [Prednisone] | -1.86 ± 0.28 | -1.83 ± 0.41 | -2.31 ± 0.061 | -1.54 ± 0.39 | -1.77 ± 0.042 | -1.84 ± 0.37 | -1.61 ± 0.33 | -0.167 ± 0.094 |  |  |  |  |  |  |  |  |  | 
CCCCOCN(C(=O)CCl)c1c(CC)cccc1CC [Butachlor] | 0.674 ± 1.6 | -0.43 ± 0.44 | -0.96 ± 0.72 | -0.4246 ± 0.0032 | -0.143 ± 1.2 | 0.287 ± 2.1 | 0.713 ± 0.79 | 2.96 ± 1.9 |  |  |  |  |  |  |  |  |  | 
CCC(C)c1ccccc1O (stereo not drawn) [2-(Butan-2-yl)phenol] |  | -1.12 ± 0.63 |  | -2.96 ± 1.4 | -3.27 ± 0.89 | -1.71 ± 1 | -1.22 ± 1.5 | 0.802 ± 0.9 | -0.239 ± 0.71 | -2.25 ± 1.2 |  |  |  |  |  |  |  | 
Cc1ccc([N+](=O)[O-])cc1C [1,2-Dimethyl-4-nitrobenzene] | -1.16 ± 0.66 | -1.81 ± 0.53 | -1.44 ± 0.14 | -1.1 ± 0.27 | -1.56 ± 0.13 | -1.07 ± 0.013 | -0.524 ± 0.73 | 0.459 ± 1.3 |  |  |  |  |  |  |  |  |  | 
O=C(NO)C1(NS(=O)(=O)c2ccc(Oc3ccc(F)cc3)cc2)CCOCC1 | 0.225 ± 0.2 | -0.912 ± 0.77 | -0.649 ± 0.23 | -0.54 ± 0.41 | -0.318 ± 0.55 | -0.00829 ± 0.11 | -1.25 ± 0.49 | 10.5 ± 1.4 |  |  |  |  |  |  |  |  |  | 
CCCCCCCCCCCCc1ccccc1S(=O)(=O)O [Sodium dodecylbenzenesulfonate] | -1.64 ± 0.19 | -2.37 ± 0.1 | -2.11 ± 0.97 | -2.14 ± 0.36 | -1.89 ± 0.21 | -2.56 ± 1.3 | -1.08 ± 0.42 | 49.9 ± 3.5 |  |  |  |  |  |  |  |  |  | 
O=C(O)CCCCC(=O)O [Hexanedioic acid] | -0.567 ± 0.22 | -0.838 ± 0.079 | -1.43 ± 1.4 | -1.17 ± 0.34 | -1.55 ± 0.028 | -0.895 ± 0.82 | -1.25 ± 0.29 | 0.446 ± 0.27 |  |  |  |  |  |  |  |  |  | 
CN(C)C(=S)S [Sodium dimethyldithiocarbamate] | -0.405 ± 0.41 | -0.29 ± 1 | -0.988 ± 0.04 | -0.72 ± 0.44 | -0.138 ± 0.64 | 0.154 ± 0.44 | 0.196 ± 0.41 | 2.63 ± 2.6 |  |  |  |  |  |  |  |  |  | 
OCC1CO1 (stereo not drawn) [Glycidol] | -0.883 ± 0.53 | -1.28 ± 0.094 | -0.409 ± 0.45 | -1.25 ± 0.47 | -0.452 ± 0.0064 | -0.678 ± 0.18 | -0.342 ± 0.43 | 1.57 ± 0.042 |  |  |  |  |  |  |  |  |  | 
Cc1cc2c(cc1C(F)(F)F)N(C(=O)Nc1ccc(Oc3cccnc3C)nc1)CC2 |  |  |  |  |  |  |  |  |  |  | -7.63 ± 1.1 | -7.9 ± 0.54 | -7.01 ± 1.2 | -8.47 ± 0.3 | -7.66 ± 0.24 | -6.19 ± 1 | 68.937 ± 0.005 | 72.5 ± 1.1
CC1(C(=O)Nc2ccc(O)c(Cl)c2Cl)CCCCC1 [Fenhexamid] |  | -4.08 ± 0.5 |  | -3.83 ± 0.64 | -3.52 ± 0.054 | -3.56 ± 0.41 | -3.14 ± 0.72 | -0.0455 ± 1.5 | -0.566 ± 0.13 | -4.43 ± 1.2 |  |  |  |  |  |  |  | 
CC1(C)C(=O)N(Cl)C(=O)N1Cl [1,3-Dichloro-5,5-dimethylhydantoin] | 0.112 ± 0.0031 | -1.567 ± 0.014 | -0.979 ± 0.12 | -0.604 ± 0.23 | -0.443 ± 0.098 | -0.243 ± 0.15 | 1.54 ± 2 | 0.626 ± 0.89 |  |  |  |  |  |  |  |  |  | 
CCc1cc(C2=C(C(=O)O)N(c3ccccc3C(F)(F)F)S(=O)(=O)c3ccccc32)cc2c1OCO2 [Fandosentan potassium salt] | -0.538 ± 1.3 | -0.00891 ± 0.054 | -0.491 ± 0.64 | -0.769 ± 1.1 | -0.525 ± 0.42 | -0.587 ± 0.47 | 2.28 ± 1.1 | 48.4 ± 0.95 |  |  |  |  |  |  |  |  |  | 
COC1COCCC1NC1CCC(C(=O)N2CCc3ncc(C(F)(F)F)cc3C2)(C(C)C)C1 (stereo not drawn) [MK-812] | 0.0558 ± 0.81 | -1.65 ± 0.31 | -1.72 ± 0.43 | -2.52 ± 1.1 | -1.87 ± 1 | -1.43 ± 0.51 | -1.59 ± 0.027 | -0.0412 ± 0.23 |  |  |  |  |  |  |  |  |  | 
